Experimental findings from patent publication US10287301B2 (Achillion Pharmaceuticals, Inc., priority 2015, dated 2019) are described below.

For this test, the target named is Human Factor D (Homo sapiens (Human), UniProt P00746). Kind of test: Human Factor D Assay. The format is biochemical. The procedure, abridged: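 First, compound at various concentrations is mixed with 80 nM (final) human serum Factor D in 50 mM Tris, 1M NaCl, pH 7.5 for 5 min at room temperature.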
Where [1] appears, read: Table 3, Human Factor D 80 nM, substrate Z-L-Lys-SBzl, read-out: IC50 (Stars).
Setting [2] is: Human Factor D, Table 3, read-out: IC50.
Where [3] appears, read: Human Factor D 80 nM, substrate Z-L-Lys-SBzl, read-out: IC50.
Where [4] appears, read: Human Factor D assay of Example 8, Table 2, read-out: IC50.

SMILES strings stand for the structures. Like-named read-outs stand apart in the source and are kept apart here.

One may read the IC50 as the midpoint of a concentration-inhibition curve.

Sequence of Human Factor D (P00746 26-253): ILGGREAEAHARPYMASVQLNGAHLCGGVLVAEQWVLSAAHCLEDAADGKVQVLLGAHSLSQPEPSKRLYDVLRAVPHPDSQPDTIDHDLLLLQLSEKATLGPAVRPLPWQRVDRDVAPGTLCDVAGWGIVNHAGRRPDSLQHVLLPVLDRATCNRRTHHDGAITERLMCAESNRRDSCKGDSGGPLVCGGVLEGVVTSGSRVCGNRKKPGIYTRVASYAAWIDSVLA

Molecule `CC(=O)c1nn(CC(=O)N2C[Si](C)(C)C[C@H]2C(=O)Nc2cccc(Br)n2)c2ccc(-c3cnc(C)nc3)cc12` [Compound 514, (R)-1-(2-(3-acetyl-5-(2-Methylpyrimidin-5-yl)-1H-indazol-1-yl)acetyl)-N-(6-bromopyridin-2-yl)-3,3-dimethyl-1,3-azasilolidine-5-carboxamide] yielded an IC50 of 1 to 10 µM.
`COc1cc(Br)nc(NC(=O)[C@@H]2C[C@H]3C[C@H]3N2C(=O)Cn2nc(C(C)=O)c3cc(-c4cnc(N)nc4)ccc32)c1` [Compound 434, (1R,3S,5R)-2-(2-(3-Acetyl-5-(2-aminopyrimidin-5-yl)-1H-indazol-1-yl)acetyl)-N-(6-bromo-4-methoxypyridin-2-yl)-2-azabicyclo[3.1.0]hexane-3-carboxamide]: the IC50 under setting [1] is below 1 µM.
Regarding `CC(=O)c1nn(CC(=O)N2C[C@H](F)C[C@H]2C(=O)Nc2cccc(Br)n2)c2cc(C(=O)N(C)C)c(-c3cnc(C)nc3)cc12` [Compound 722, 3-Acetyl-1-(2-((2S,4R)-2-((6-bromopyridin-2-yl)carbamoyl)-4-fluoropyrrolidin-1-yl)-2-oxoethyl)-N,N-dimethyl-5-(2-methylpyrimidin-5-yl)-1H-indazole-6-carboxamide], the IC50 under setting [2] was below 1 µM.
Turning to `NC(=O)c1nn(CC(=O)N2C[C@H](F)C[C@H]2C(=O)NCc2cc(F)cc(Cl)c2)c2ccc(-c3ccnnc3)cc12` [Compound 62, 1-(2-((2S,4R)-2-(3-chloro-5-fluorobenzyl-carbamoyl)-4-fluoropyrrolidin-1-yl)-2-oxoethyl)-5-(pyridazin-4-yl)-1H-indazole-3-carboxamide], under setting [3], the IC50 was below 1 µM.
In the case of `CC(=O)c1nn(CC(=O)N2C[C@H](F)C[C@H]2C(=O)Nc2ccc(C)c(Br)n2)c2ccc(-c3cnc(C)nc3)cc12` [Compound 402, (2S,4R)-1-(2-(3-Acetyl-5-(2-methylpyrimidin-5-yl)-1H-indazol-1-yl)acetyl)-N-(6-bromo-5-methylpyridin-2-yl)-4-fluoropyrrolidine-2-carboxamide], under setting [1], the half-inhibitory concentration (IC50) is below 1 µM.
`CC(=O)Nc1ncc(-c2ccc3c(c2)c(C(C)=O)cn3CC(=O)N2C[C@H](F)C[C@H]2C(=O)Nc2cccc(-c3ccccc3Cl)c2F)cn1` [Compound 138, (2S,4R)-1-(2-(5-(2-acetamidopyrimidin-5-yl)-3-acetyl-1H-indol-1-yl)acetyl)-N-(2′-chloro-2-fluorobiphenyl-3-yl)-4-fluoropyrrolidine-2-carboxamide]: the IC50 under setting [3] was below 1 µM.
With `COc1cc2c(cc1-c1cnc(C)nc1)c(C(C)=O)cn2CC(=O)N1C[C@H](F)C[C@H]1C(=O)Nc1cccc(Br)n1` [Compound 319, (2S,4R)-1-(2-(3-Acetyl-6-methoxy-5-(2-methylpyrimidin-5-yl)-1H-indol-1-yl)acetyl)-N-(6-bromopyridin-2-yl)-4-fluoropyrrolidine-2-carboxamide], the IC50 under setting [4] is below 1 µM.
Same read-out and setting: then `CC(=O)c1nn(CC(=O)N2C[C@H](F)C[C@H]2C(=O)Nc2cccc(OC(F)F)c2F)c2ccc(-c3cnc4cc(C)nn4c3)cc12` [Compound 281, (2S,4R)-1-(2-(3-acetyl-5-(2-methylpyrazolo[1,5-a]pyrimidin-6-yl)-1H-indazol-1-yl)acetyl)-N-(3-(difluoromethoxy)-2-fluorophenyl)-4-fluoropyrrolidine-2-carboxamide], with below 1 µM.
Take `CC(=O)c1nn(CC(=O)N2[C@H](C(=O)Nc3nc(Br)ccc3C3CC3)C[C@@]3(C)C[C@@H]23)c2ccc(-c3cnc(C)nc3)cc12` [Compound 616, (1R,3S,5R)-2-(2-(3-Acetyl-5-(2-methylpyrimidin-5-yl)-1H-indazol-1-yl)acetyl)-N-(6-bromo-3-cyclopropyl-pyridin-2-yl)-5-methyl-2-azabicyclo[3.1.0]hexane-3-carboxamide]: the IC50 under setting [2] was below 1 µM.
For the molecule `CC(=O)c1nn(CC(=O)N2[C@@H]3C[C@@H]3C[C@H]2C(=O)Nc2nc(Br)ccc2C)c2ccc(-c3cnc(N)nc3)cc12` [Compound 446, (1R,3S,5R)-2-(2-(3-Acetyl-5-(2-aminopyrimidin-5-yl)-1H-indazol-1-yl)acetyl)-N-(6-bromo-3-methylpyridin-2-yl)-2-azabicyclo[3.1.0]hexane-3-carboxamide], the IC50 under setting [1] was below 1 µM.
For the molecule `CC(=O)c1nn(CC(=O)N2C[C@H](F)C[C@H]2C(=O)Nc2cncc(Br)n2)c2ccc(-c3ccc4nc(C)cn4c3)cc12` [Compound 654, (2S,4R)-1-(2-(3-Acetyl-5-(2-methylimidazo[1,2-a]pyridin-6-yl)-1H-indazol-1-yl)acetyl)-N-(6-bromopyrazin-2-yl)-4-fluoropyrrolidine-2-carboxamide], the IC50 under setting [2] was below 1 µM.
For `CC(=O)c1nn(CC(=O)N2C[C@H](F)C[C@H]2C(=O)Nc2cccc(Br)n2)c2ccc(-c3ccn4nccc4n3)cc12` [Compound 242, (2S,4R)-1-(2-(3-acetyl-5-(pyrazolo[1,5-a]pyrimidin-5-yl)-1H-indazol-1-yl)acetyl)-N-(6-bromopyridin-2-yl)-4-fluoropyrrolidine-2-carboxamide], the IC50 under setting [4] is below 1 µM.
As for `CC(=O)c1cn(CC(=O)N2C[C@H](F)C[C@H]2C(=O)Nc2cc(O)ccn2)c2ccc(-c3ccnnc3)cc12` [Compound 177, (2S,4R)-1-(2-(3-acetyl-5-(pyridazin-4-yl)-1H-indol-1-yl)acetyl)-4-fluoro-N-(4-hydroxypyridin-2-yl)pyrrolidine-2-carboxamide], the IC50 was 1 to 10 µM.
For `NC(=O)c1nn(CC(=O)N2[C@@H]3C[C@@H]3C[C@H]2C(=O)Nc2cccc(OC(F)(F)F)c2F)c2ccc(-c3cncnc3)cc12` [Compound 8, 1-(2-((1R,3S,5R)-3-(2-fluoro-3-(trifluoromethoxy)phenylcarbamoyl)-2-azabicyclo[3.1.0]hexan-2-yl)-2-oxoethyl)-5-(pyrimidin-5-yl)-1H-indazole-3-carboxamide], the half-maximal inhibitory concentration (IC50) under setting [3] was below 1 µM.
For `COc1ncc(-c2ccc3c(c2)c(C(C)=O)nn3CC(=O)N2[C@H](C(=O)Nc3cncc(Br)n3)C[C@@]3(C)C[C@@H]23)cn1` [Compound 486], under setting [1], the IC50 is below 1 µM.
For `CC(=O)c1cn(CC(=O)N2[C@@H]3C[C@@H]3C[C@H]2C(=O)Nc2cccc(Br)n2)c2ccc(-c3cnc(C)nc3)cc12` [Compound 132, (1R,3S,5R)-2-(2-(3-acetyl-5-(2-methylpyrimidin-5-yl)-1H-indol-1-yl)acetyl)-N-(6-bromopyridin-2-yl)-2-azabicyclo[3.1.0] hexane-3-carboxamide], the IC50 under setting [3] was below 1 µM.
Take `COc1ccc(NC(=O)[C@@H]2C[C@@H](F)CN2C(=O)Cn2nc(C(C)=O)c3cc(-c4cnc(C)nc4)ccc32)nc1Br` [Compound 394, (2S,4R)-1-(2-(3-Acetyl-5-(2-methylpyrimidin-5-yl)-1H-indazol-1-yl)acetyl)-N-(6-bromo-5-methoxypyridin-2-yl)-4-fluoropyrrolidine-2-carboxamide]: under setting [1], the IC50 was below 1 µM.
Take `CC(=O)c1cn(CC(=O)N2C[C@H](F)C[C@H]2C(=O)Nc2cccc(Br)n2)c2ccc(-c3ccccc3Cl)cc12` [Compound 100, (2S,4R)-1-(2-(3-acetyl-5-(2-chlorophenyl)-1H-indol-1-yl)acetyl)-N-(6-bromopyridin-2-yl)-4-fluoropyrrolidine-2-carboxamide]: the IC50 under setting [3] was below 1 µM.
Still for that read-out and setting: then `NC(=O)c1nn(CC(=O)N2C[C@H](F)C[C@H]2C(=O)Nc2cc(=O)[nH]n2C2CCCCC2)c2ccc(-c3ccnnc3)cc12` [Compound 168, 1-(2-((2S,4R)-2-(2-cyclohexyl-5-oxo-2,5-dihydro-1H-pyrazol-3-ylcarbamoyl)-4-fluoropyrrolidin-1-yl)-2-oxoethyl)-5-(pyridazin-4-yl)-1H-indazole-3-carboxamide], with above 10 µM.
Consider `CC(=O)c1nn(CC(=O)N2C[C@H](F)C[C@H]2C(=O)Nc2cccc(Br)n2)c2ccc(-c3cnc4cc(F)nn4c3)cc12` [Compound 683, (2S,4R)-1-(2-(3-Acetyl-5-(2-fluoropyrazolo[1,5-a]pyrimidin-6-yl)-1H-indazol-1-yl)acetyl)-N-(6-bromopyridin-2-yl)-4-fluoropyrrolidine-2-carboxamide], for which, under setting [2], the IC50 is below 1 µM.
In the case of `CC(=O)c1nn(CC(=O)N2C[C@H](F)C[C@H]2C(=O)Nc2cccc(Br)n2)c2ccc(-c3cnc4nc(C)ccn34)cc12` [Compound 321, (2S,4R)-1-(2-(3-acetyl-5-(7-methylimidazo[1,2-a]pyrimidin-3-yl)-1H-indazol-1-yl)acetyl)-N-(6-bromopyridin-2-yl)-4-fluoropyrrolidine-2-carboxamide], the 50% inhibitory concentration (IC50) under setting [4] is below 1 µM.
Regarding `CC(=O)n1cc(CC(=O)N2C[C@H](F)C[C@H]2C(=O)Nc2cccc(Br)n2)c2ccc(-c3cnc(C)nc3)cc21` [Compound 711, (2S,4R)-1-(2-(1-Acetyl-6-(2-methylpyrimidin-5-yl)-1H-indol-3-yl)acetyl)-N-(6-bromopyridin-2-yl)-4-fluoropyrrolidine-2-carboxamide], the IC50 under setting [2] was below 1 µM.
In the case of `CC(=O)c1nn(CC(=O)N2C[C@H](F)C[C@H]2C(=O)Nc2cccc(Br)n2)c2ccc(-c3ccc4ncncc4c3)cc12` [Compound 504, (2S,4R)-1-(2-(3-Acetyl-5-(quinazolin-6-yl)-1H-indazol-1-yl)acetyl)-N-(6-bromopyridin-2-yl)-4-fluoropyrrolidine-2-carboxamide], the IC50 under setting [1] is below 1 µM.
In the case of `CC(=O)c1nn(CC(=O)N2C[C@H](F)C[C@H]2C(=O)Nc2cncc(C(F)(F)F)n2)c2ccc(-c3cnc4cc(C)nn4c3)cc12` [Compound 313, (2S,4R)-1-(2-(3-acetyl-5-(2-methylpyrazolo[1,5-a]pyrimidin-6-yl)-1H-indazol-1-yl)acetyl)-4-fluoro-N-(6-(trifluoromethyl)pyrazin-2-yl)pyrrolidine-2-carboxamide], the IC50 under setting [4] was below 1 µM.
In turn, `CC(=O)c1nn(CC(=O)N2CCC[C@H]2C(=O)Nc2cccc(C)n2)c2ccc(-c3ccc4c(c3)CCC4)cc12` [Compound 572, (S)-1-(2-(3-Acetyl-5-(2,3-dihydro-1H-inden-5-yl)-1H-indazol-1-yl)acetyl)-N-(6-methylpyridin-2-yl)pyrrolidine-2-carboxamide] came in with a half-maximal inhibitory concentration (IC50) of 1 to 10 µM.
